This is an account of results in a melting point compilation (Tetko et al.; mined from patent text by program, amines drawn as free bases though some values may be those of a salt).

Residues, ends and D or L forms follow the SMILES beside them. *: point of attachment. Boc = CC(C)(C)OC(=O)* Where only a bound is given, the exact number is not on record here.

The term melting point denotes the temperature of the solid-liquid transition. With `Cc1ccc(N2CCN(CCCCc3ccc(C4CCC(=O)N4)cc3)CC2)cc1` (stereo not drawn), the melting point was 164 to 165 °C.
Regarding `[O-][N+]1=C(c2ccccc2F)c2cc(Cl)ccc2C=CC1`, the melting point is 138 to 139 °C.
In the case of `COC(=O)CCCc1cc2cc(Cl)ccc2n1S(=O)(=O)c1ccc2c(c1)CCC(C)(C)O2` it was 126 to 129 °C; in that of `O=C(NCCCCN1CCC(c2ccc3c(c2OCCO)CCCC3)CC1)c1ccc(-c2ccc(Cl)cc2)cc1`, 162 °C; in that of `CCOC(OCC)c1[nH]c(C2CC2)nc(=O)c1Cl`, 109 to 111 °C.
On to `O=C(O)Cc1c(C(=O)c2ccc(F)cc2)[nH]c2cc(Cl)ccc12`, for which the melting point was in the range of 181 to 183 °C.
Regarding `CC(C)(C)OC(=O)N1CCCC1(Cc1ccc(Br)cc1)C(=O)O` (stereo not drawn), the melting point came to 144 °C.
In the case of `NC(Cc1cc(Cl)ccc1CCP(=O)(O)O)C(=O)O` (stereo not drawn), the melting point was > 160 °C.
With `Cc1nc(N2CCN(CCc3c[nH]c4ccccc34)C2=O)sc1C(=O)NCc1cccnc1` the figure was 198 to 201 °C.
In turn, `CN1C(=O)CC[C@]2(C)c3ccc(CCc4ccccc4)cc3CC[C@@H]12` yielded a melting point of 109 to 111 °C.
As for `Cc1oc(-c2ccccc2)nc1C(=O)COc1ccc(C#N)cc1`, the melting point was in the range of 202 to 203 °C.
With `Cc1cnc2c(C#N)c(-c3ccc(S(=O)(=O)NC4(C(F)(F)F)CC4)cn3)n(C3CCCC3)c2c1` the figure was 249 to 251 °C; with `C=CC(=O)OCCN(CCOC(=O)C=C)c1ccc(N=Nc2snc(C)c2C#N)c(NC(=O)C(C)C)c1`, 92 to 94 °C.
In the case of `COc1ccc(C(=O)N[C@@H]2CCc3cccc(N4CCN(C)CC4)c3C2)cc1`, the melting point lay in the range of 186 to 187 °C.
As to `O=Cc1ccc2c(ccc3ccccc32)c1`, the melting point fell in the range of 58 to 60 °C.
With `CCCCC(Cn1cncn1)(C(N)=O)c1ccc(Cl)cc1` (stereo not drawn) the figure was 197 to 199 °C.
Consider `O=C(O)c1ccccc1C(=O)c1cc(-c2ccccc2)c(O)c(-c2ccccc2)c1`, for which the melting point worked out at 234 °C.
Compound `CCCCCCCCCCCCCCCCNc1ccc(C(=O)NS(=O)(=O)C(F)(F)F)cc1` showed a melting point of 172 to 174 °C.
In the case of `CCCC(NS(=O)(=O)c1ccc(Cl)cc1)C(=S)Nc1ccc(CCC(=O)OC)cc1` (racemic) it was 116 to 118 °C; in that of `COc1ccc(C(=O)Nc2ccc3ccc(Oc4c(C)cccc4C)nc3n2)cc1`, 174 °C.
Regarding `CCCCN(Cc1ccccc1)C(=O)Nc1cccc(Cl)c1O`, the melting point is 59 to 62 °C.
Regarding `CC(=O)NCC(C)n1nnnc1S` (stereo not drawn), the melting point lay within 176 to 178 °C.
With `CC1C(=O)c2cc(NS(C)(=O)=O)ccc2OC12CCN(CCc1ccccn1)CC2` (stereo not drawn) the figure was 210 to 211 °C; with `CC1CCCC(C)(C)C1CS(=O)(=O)c1ccccc1` (stereo not drawn), 73 °C.
Compound `c1ccc2c(c1)CCc1ccccc1C21CO1` came in with a melting point of 79 to 80 °C.
`COC(=O)CCc1ccc(NC(=O)NNC=O)cc1` registered a melting point of 146 to 148 °C.
As for `COc1ccc(C(=O)c2cccc(F)c2F)c(O)c1Cl`, the melting point lay within 161 to 162 °C.
For `COC(=O)C=Cc1cc(NC2CCN(Cc3ccccc3)CC2)ccc1C`, the melting point was in the range of 140 to 142 °C.
In turn, `Cc1cc(C(=O)N2C(C)CCCC2C)ccc1[N+](=O)[O-]` (stereo not drawn) displayed a melting point of 99.7 to 100 °C.
`CC(C)C1(C)NC(c2ccccc2C(F)(F)F)=NC1=O` (stereo not drawn) registered a melting point of 109 to 110 °C.
As to `CC1(CN2CCC(Oc3ccc(C(F)(F)F)cc3)CC2)Cn2cc([N+](=O)[O-])nc2O1` (stereo not drawn), the melting point was in the range of 113 to 114 °C.
Turning to `O=C(O)c1ccc(-n2cc(C3c4ccccc4C=Cc4ccccc43)c(=S)[nH]c2=O)cc1`, the melting point was found to be 320 °C.
As to `COC(=O)c1c(-c2cccs2)c2cc(OCc3ccccc3)ccc2c(=O)n1CC(C)C`, the melting point fell in the range of 143 to 144 °C.
Take `Cc1ccc(CNC(=O)C(=O)NCCc2ccccn2)n1C`: the melting point was in the range of 147 to 149 °C.
Turning to `CCOC(=O)c1ccc2c(c1)C(=C1CCN(C)CC1)c1ccccc1C=C2`, the melting point fell in the range of 94 to 96 °C.
In the case of `N#Cc1ccccc1C(F)(F)C(F)(F)c1ccccc1` it was 84 to 86 °C.
With `O=C(O)CN1C(=O)C(NC(CCc2ccccc2)C(=O)O)CCc2ccccc21` (stereo not drawn), the melting point is 256 to 259 °C.
`CCCn1cc(Cc2ccc(C(=O)NS(=O)(=O)c3ccccc3C)cc2OC)c2cc(CCCCC(=O)N(C)C)ccc21` registered a melting point of 80 to 85 °C.
The compound `NC(=O)c1ccc(CN2CCN(C(=O)c3cc(C(F)(F)F)cc(C(F)(F)F)c3)[C@H](Cc3c[nH]c4ccccc34)C2)cc1` registered a melting point of 120 to 126 °C.
In turn, `C[Si]1(C)CCCCCCCCCCCCCC[Si](C)(C)O[Si](C)(C)CCCCCCCCCCCCCC[Si](C)(C)O1` yielded a melting point of 97 °C.
In the case of `C=CCC1=C(O)C(C)=CC(C)(OC(C)=O)C1C` (stereo not drawn) it was 117 to 118 °C; in that of `Cc1ccc(C)c(OCCCC(C)(C)C(=O)Nc2ccc3c(c2)OCO3)c1`, 89 to 90 °C; in that of `CC(=O)N1CCc2ccc(/C=C/CCN3CCC(c4ccc(Cl)cc4)CC3)cc2CC1`, 153 to 155 °C.
In the case of `CC12CC3CC(C)(C1)CC(NC(=O)CCl)(C3)C2` it was 107 °C; in that of `Cc1oc(-c2ccccc2)nc1COc1ccc2cc(C/C=C/O)oc2c1`, 143 to 144 °C.
In turn, `COC(=O)[C@@H]1CCCCOc2ccc(cc2)C[C@H](NC(=O)OC(C)(C)C)C(=O)N[C@@H](C(C)C)C(=O)N1` yielded a melting point of 225 to 228 °C.
Take `CCc1nnc(/C=C/c2cn(-c3ccccc3)nc2OCc2ccc(OCc3nc(-c4ccco4)oc3C)c(OC)c2)o1`: the melting point was in the range of 183 to 184 °C.
The compound `CSc1ccc(-c2c(NN)nc(NN)nc2-c2ccccc2)cc1` had a melting point of 207 to 210 °C.
As to `CN1c2ccccc2N(Cc2ccccc2)C(=O)[C@H]2CCC[C@H]21` (relative stereo), the melting point lay in the range of 123 to 125 °C.
With `Cc1ccc2c(c1)SC(c1ccc(OCCCCBr)cc1)C(=O)N2C` (stereo not drawn) the figure was 75 to 76 °C; with `O=C(CCc1ccc(S(=O)(=O)N(C(=O)c2c3ccccc3nc3ccccc23)c2ccc3c(c2)OCCO3)cc1)ON1C(=O)CCC1=O`, 140 °C.
On to `CC(C)(CCc1nnn[nH]1)c1ccc(C(=O)Nc2cn3cc(C(F)(F)F)ccc3n2)cc1`, for which the melting point lay in the range of 250 to 251 °C.
In turn, `CC(C)OC(=O)c1cc(NC(=O)c2c(Cl)c(Cl)c(Cl)c(Cl)c2C(=O)O)ccc1Cl` showed a melting point of 178 to 179 °C.
On to `O=C(Nc1cccc(-c2ccnc3c(C(=O)c4ccco4)cnn23)c1)c1ccccc1`, for which the melting point was in the range of 220 to 222 °C.
`COCN1c2cc(CCl)ccc2Sc2nccnc21` returned a melting point of 125 to 126 °C.
The compound `COc1cc(C=O)ccc1OCc1cn(-c2ccccn2)nc1C` registered a melting point of 141 to 142 °C.
In the case of `CCOC(=O)c1c(CCc2ccc(O)cc2)oc2ccc(C#N)cc12` it was 182 to 183 °C; in that of `Cc1c(C)c2c(c(C)c1N)CC(C)(CN1CCN(CC(c3ccccc3)c3ccccc3)CC1)O2` (stereo not drawn), 130 to 132 °C.
For `COC(C)=CC(=O)Nc1cccc(C(F)(F)F)c1`, the melting point worked out at 90 °C.
In the case of `Cn1nnc(-c2cccc(Oc3cccc(C(F)(F)F)c3)n2)n1` it was 58 to 61 °C.
In the case of `CCCc1nc2c(N)nc(C)c(C)c2n1NC1CCCCC1` it was 177 to 179 °C; in that of `CC1(C)COS(=O)Oc2ccc(OS(C)(=O)=O)cc21` (stereo not drawn), 96 to 98 °C; in that of `CC1(C)NC(=O)N(c2ccc(C#N)c(C(F)(F)F)c2)C1=N`, 228 °C.
Compound `CC(C)(C)c1cc(O)no1` came in with a melting point of 99 to 101 °C.
For `CC1(C)CC(=O)C2=C(C1)NC1=C(C(=O)CC(C)(C)C1)C2c1ccc(Cl)c(Oc2ccncc2)c1`, the melting point lay in the range of 242 to 244 °C.
Take `CCc1nc2cc(S(N)(=O)=O)c(Cl)cc2n1-c1ccc(CCNC(=O)NS(=O)(=O)c2ccc(C)cc2)cc1`: the melting point was 163 to 170 °C.
Turning to `CCCc1c(OCC(O)COc2cccc(N)c2C#N)ccc(C(C)=O)c1O` (stereo not drawn), the melting point fell in the range of 123 to 125 °C.
`CCOC(=O)C=CN1C(C)(C)CC(OC(=O)CC(=O)OC2CC(C)(C)N(C=CC(=O)OCC)C(C)(C)C2)CC1(C)C`: the melting point is 100 to 102 °C.
With `CSCCC(NC(=O)C(CC(C)C)NC(=O)CNC(=O)C(NC(=O)C(Cc1ccccc1)NC(=O)C(C)NC(=O)OC(C)(C)C)C(C)C)C(=O)O` (stereo not drawn) (Boc-AFVGLM-OH; configuration not given here) the figure was 252 to 281 °C.
With `Cc1ccccc1-c1c(CS)n(C)c(=O)c2ccccc12` the figure was 184 to 186 °C.
Compound `CCOCc1nc2c(N)nc3ccccc3c2n1CCCCS(=O)(=O)N1CCCCC1` yielded a melting point of 185 to 188 °C.
With `COc1cc(NC(=O)N[C@H]2CCCCNC2=O)c(O)c(C(C)(C)C)c1` the figure was 178 to 179 °C; with `NC(=O)c1sc2nc(N3CCC(NCC(O)c4cc5ccccc5cn4)CC3)cc(C(F)(F)F)c2c1N` (stereo not drawn), 169 to 172 °C.
In turn, `O=C1c2ccc(F)cc2C(=O)N1c1cc([N+](=O)[O-])c(Cl)cc1F` had a melting point of 162 to 163 °C.
`COc1ccc2c(C3=C(c4cn(C)c5cc([N+](=O)[O-])ccc45)C(=O)NC3=O)cn(C)c2c1`: the melting point fell in the range of 308 to 310 °C.
`N#Cc1ccc(Sc2ccc3cc(Br)ccc3c2)cc1C(F)(F)F` registered a melting point of 114 to 116 °C.
`COc1ccc(C(F)(F)F)cc1-c1ccc(S(=O)(=O)N2c3ccccc3CC2C(=O)NCCOc2ccc(CC(=O)O)cc2)cc1` (stereo not drawn): the melting point lay in the range of 85 to 88 °C.
In the case of `O=C(O)c1cc(Oc2cc(Cl)c(Cl)cc2Cl)ccc1[N+](=O)[O-]` it was 157 to 161 °C; in that of `COc1cc(C=CC(=O)c2ccccc2)ccc1O`, 87 to 88 °C; in that of `CCCCCCCCCCCCCCS(N)(=O)=O`, 92 to 93 °C.
Compound `Cn1c(-c2cccs2)n[nH]c1=O` registered a melting point of 183 to 185 °C.
As to `O=c1ccn(-c2ccc(Cl)cc2)nc1-c1ccnn1-c1ccccc1`, the melting point lay in the range of 219 to 220 °C.
`CN(C)CCN1CCC(Nc2nc3ccccc3n2Cc2ccc(F)cc2)CC1` had a melting point of 166 °C.
